Tests used:
[1] = Stability in 50% human plasma at 100 uM measured for 24 hrs by LCMS analysis; assay type: ADME, cell-free
[2] = target: T1, Butyrophilin subfamily 3 member A1 (Homo sapiens, UniProt O00481); experiment: Activation of butyrophilin 3A1 in human K562 cells assessed as interferon-gamma production pretreated for 240 mins followed by HMBPP-treated Vgamma9Vdelta2 T cells addition and measured after 20 hrs by ELISA; assay type: cell-based
[3] = target: T1, Butyrophilin subfamily 3 member A1; experiment: Activation of butyrophilin 3A1 in human K562 cells assessed as interferon-gamma production pretreated for 60 mins followed by HMBPP-treated Vgamma9Vdelta2 T cells addition and measured after 20 hrs by ELISA; assay type: cell-based
[4] = target: T1, Butyrophilin subfamily 3 member A1; experiment: Activation of butyrophilin 3A1 in human K562 cells assessed as interferon-gamma production pretreated for 15 mins followed by HMBPP-treated Vgamma9Vdelta2 T cells addition and measured after 20 hrs by ELISA; assay type: cell-based
PBMC = experiment: Activation of cell proliferation in human PBMC incubated for 72 hrs by Cell Quanti Blue reagent based assay; assay type: functional

T1 sequence (O00481 whole entry): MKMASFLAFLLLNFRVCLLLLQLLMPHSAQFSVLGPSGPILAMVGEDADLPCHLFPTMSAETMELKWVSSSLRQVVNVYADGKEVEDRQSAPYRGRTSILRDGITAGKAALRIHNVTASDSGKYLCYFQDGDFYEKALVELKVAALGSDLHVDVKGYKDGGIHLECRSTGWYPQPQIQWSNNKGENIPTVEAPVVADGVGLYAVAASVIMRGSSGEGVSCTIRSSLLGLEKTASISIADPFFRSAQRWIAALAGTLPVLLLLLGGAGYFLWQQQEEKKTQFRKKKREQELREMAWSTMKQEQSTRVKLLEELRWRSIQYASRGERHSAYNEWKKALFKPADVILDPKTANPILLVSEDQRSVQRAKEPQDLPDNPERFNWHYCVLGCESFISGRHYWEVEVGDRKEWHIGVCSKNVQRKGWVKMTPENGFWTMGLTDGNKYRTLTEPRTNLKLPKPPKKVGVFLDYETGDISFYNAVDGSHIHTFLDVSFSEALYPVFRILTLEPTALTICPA

SMILES	Stability [1]	EC50 [2] [nM]	EC50 [3] [nM]	EC50 [4] [nM]	EC50 (PBMC) [nM]
CCOC(=O)[C@H](C)N[P@](=O)(CC/C=C(\C)CO)Oc1ccccc1	Stable	43	160	460	0.43
C/C(=C\CCP(=O)(O)O)CO	–	–	–	–	4000
C/C(=C\CCP(=O)(O)OP(=O)(O)O)CO	–	280	1200	7600	–
C/C(=C\CCP(=O)(OCOC(=O)C(C)(C)C)Oc1ccccc1)CO (configuration not stated)	–	–	–	–	14
CCOC(=O)[C@@H](C)N[P@@](=O)(CC/C=C(\C)CO)Oc1ccccc1	Stable	430	1500	4600	–
C/C(=C\COP(=O)(O)OP(=O)(O)O)CO	–	–	–	–	0.5
C/C(=C\CCP(=O)(OCOC(=O)C(C)(C)C)OCOC(=O)C(C)(C)C)CO	Stable	–	–	–	–
O=P(O)(O)C(O)(Cn1ccnc1)P(=O)(O)O [ZOLEDRONIC ACID]	–	23000	79000	> 100000	–
CCOC(=O)[C@@H](C)N[P@](=O)(CC/C=C(\C)CO)Oc1ccccc1	Stable	520	2000	6000	–
C/C(=C\CCP(=O)(OCOC(=O)C(C)(C)C)Oc1cccc2ccccc12)CO (configuration not stated)	–	–	–	–	0.79
CCOC(=O)CNP(=O)(CC/C=C(\C)CO)Oc1ccccc1 (racemic)	–	51	230	1500	–
CCOC(=O)[C@H](C)N[P@@](=O)(CC/C=C(\C)CO)Oc1ccccc1	Stable	21	79	200	0.28

Source: ChEMBL document CHEMBL4304812, “Synthesis and Bioactivity of the Alanyl Phosphonamidate Stereoisomers Derived from a Butyrophilin Ligand” (ACS Med Chem Lett, 2019)
